Data: patent EP4585216A1, “HETEROCYCLIC COMPOUNDS FOR THE TREATMENT OF FATTY LIVER DISEASE” (ScandiEdge Therapeutics AB, priority 2024, dated 2025)

Tests used:
pyruvate kinase (PK) [1] = test: Pyruvate kinase activity in treated HepG2 WT cells; type: cell-based; conditions: 10 µM for 4 h; for effect on PK activity in HepG2 WT cells (in words): compared to the control
Procedure: (§1) HepG2 WT and HepG2 KO cells were lysed, and protein lysate was prepared with CelLytic M (C2978, Sigma-Aldrich) lysis buffer. Protein lysate was treated with 10 µM of the drugs and the pyruvate kinase activity on protein lysate was measured using Pyruvate Kinase Assay Kit (ab83432, abeam) following manufacturer's instruction. 2×10^4 HepG2 WT cells and 1×10^5 HepG2 KO cells were seeded into a 96-well plate for measuring pyruvate kinase activity in the cells. The cells were treated with 10-20µM of drugs for 4h and washed with 250µl PBS. Cells were lysed with 50 µl PK assay buffer (ab83432, abcam) and start reaction and kinetic O.D measurement was performed on 50µl PK assay buffer containing the assay component (ab83432, abcam). O.D values were measured with microplate reader (Hidex Sense Beta Plus) at 570nm wavelength. DMSO was used as control.
(§2) The effect of the target compounds was studied on liver cell line HepG2. HepG2 expresses two different pyruvate kinases (PK), pyruvate kinase muscle (PKM2) and pyruvate kinase liver (PKL). While most cells express PKM, liver cells further express PKL. […] In addition to HepG2 KO cell, HepG2 wild-type (HepG2 WT) cells were also used.

[2] = target: T1, pyruvate kinase liver (PKL) (Homo sapiens, UniProt P30613); test: Pyruvate kinase activity in treated HepG2 PKM2 CRISPR KO cells; type: cell-based; conditions: 10 µM for 4 h; for effect on PK activity in HepG2 KO cells (in words): compared to the control
T1 construct: endogenous in cells; host or cells: HepG2 PKM2 CRISPR KO (HepG2 KO) cells; lysate in CelLytic M or treated whole cells
T1 sequence (P30613 1-543 isoform P30613-2): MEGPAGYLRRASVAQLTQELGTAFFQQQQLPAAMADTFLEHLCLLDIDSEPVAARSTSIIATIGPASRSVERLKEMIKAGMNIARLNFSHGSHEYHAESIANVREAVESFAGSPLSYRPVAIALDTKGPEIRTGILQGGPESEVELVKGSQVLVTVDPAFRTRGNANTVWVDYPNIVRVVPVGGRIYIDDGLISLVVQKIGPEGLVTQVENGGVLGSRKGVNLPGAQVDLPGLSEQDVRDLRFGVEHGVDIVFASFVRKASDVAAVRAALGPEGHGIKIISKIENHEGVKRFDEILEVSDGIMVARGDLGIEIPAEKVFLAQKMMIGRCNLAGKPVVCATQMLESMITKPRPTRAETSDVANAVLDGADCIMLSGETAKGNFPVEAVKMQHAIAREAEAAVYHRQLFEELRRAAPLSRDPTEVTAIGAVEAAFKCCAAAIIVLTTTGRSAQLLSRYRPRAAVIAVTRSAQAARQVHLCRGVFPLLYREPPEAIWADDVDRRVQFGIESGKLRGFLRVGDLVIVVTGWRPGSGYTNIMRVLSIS
Procedure: as §1, §2

[3] = target: T1, pyruvate kinase liver (PKL); test: Pyruvate kinase activity in HepG2 PKM2 CRISPR KO protein lysate; type: biochemical; conditions: for inhibition at 10 µM / reduction in PK activity of HepG2 KO protein lysate: compared to the control (DMSO); for inhibition at 10 µM: read-out: reduction in PK activity of HepG2 KO protein lysate; for reduction in PK activity of HepG2 KO protein lysate / PK activity of HepG2 KO protein lysate (in words): 10 µM; for PK activity of HepG2 KO protein lysate (in words): batches 4 and 5
Procedure: as §1, §2

HepG2 cells = test: TAG measurement in DNL steatosis model; type: cell-based; conditions: for reduction in TAG/MTT ratio / TAG content (in words): 10 µM for 1 week; for reduction in TAG/MTT ratio: compared to the control (DMSO)
Procedure: HepG2 wild type cells were purchased from genome engineering company Synthego. Cells were maintained with growth media RPMI 1640 (R2405, Sigma-Aldrich) and supplemented with 10 % fetal bovine serum (FBS, F7524, Sigma-Aldrich), 1 % penicillin-streptomycin (P/S media, P4333, Sigma-Aldrich). Steatosis induction media was prepared as DMEM high glucose (D0819, Sigma-Aldrich) with 10% FBS, 1% P/S media supplemented with 10µg/ml insulin (I9278, Sigma-Aldrich), and 10µM T0901317 (T2320, Sigma-Aldrich) for one week. HepG2 cells were seeded 6×10^4 cells per well into a 96-well plate for TAG and MTT assay after steatosis and 1×10^6 cells per well into 6-well plate for western blot analysis after steatosis. HepG2 cells were incubated with steatosis induce media (SM) for one week by 3 day + 2 day + 2 day with total three times media exchange.
HepG2 cells were seeded at 6×10^4 cells per well into 96-well plate and induced steatosis for one week with designated concentration of small molecules (this will be referred to as a DNL steatosis model). After steatosis induction, cells were washed with 200 µl of PBS and triglyceride contents was measured by Triglyceride Assay Kit - Quantification (ab65336, Abeam) following manufacturer's instruction. Optical density (O.D) values were detected with microplate reader at 570 nm (Hidex Sense Beta Plus).
5 mg/ml MTT (M2128, Sigma-Aldrich) solution in PBS (10 µL) was added to each well for MTT assay. After 1 hr, MTT solution and all media were removed from the wells. 100 µl of DMSO was added and mixed to dissolve the formazan crystals. Cell viability was analysed by measuring the absorbance of the dissolved formazan in a microplate reader at a wavelength of 570 nm with microplate reader (Hidex Sense Beta Plus). DMSO was used as control.

pyruvate kinase (PK) [4] = test: Pyruvate kinase activity in HepG2 WT protein lysate; type: biochemical; conditions: 10 µM; for reduction in PK activity of HepG2 WT protein lysate: compared to the control (DMSO); for PK activity of HepG2 WT protein lysate (in words): batches 4 and 5
Procedure: as §1, §2

Compound: COc1cc2c(cc1OC)N(Cc1ccccc1)S(=O)(=O)c1cc(OC)c(OC)cc1-2 [SET-08, 6-benzyl-2,3,8,9-tetramethoxy-6H-dibenzo[c,e][1,2]thiazine 5,5-dioxide]
- effect on PK activity in HepG2 WT cells (in words) (pyruvate kinase (PK) [1]): did not affect the PK activity
- effect on PK activity in HepG2 KO cells (in words) [2]: did not affect the PK activity

Compound: O=S1(=O)c2cc(O)c(O)cc2-c2cc(O)c(O)cc2N1Cc1ccccc1 [SET-09, 6-benzyl-2,3,8,9-tetrahydroxy-6H-dibenzo[c,e][1,2]thiazine 5,5-dioxide]
- inhibition at 10 µM [3]: 70.2%
- reduction in TAG/MTT ratio (HepG2 cells): 21.3%
- reduction in PK activity of HepG2 WT protein lysate (pyruvate kinase (PK) [4]): 42.6%

Compound: O=S1(=O)Nc2cc(O)c(O)cc2-c2cc(O)c(O)cc21 [SET-10, 2,3,8,9-tetrahydroxy-6H-dibenzo[c,e][1,2]thiazine 5,5-dioxidee]
- inhibition at 10 µM [3]: 29.4%
- effect on PK activity in HepG2 WT cells (in words) (pyruvate kinase (PK) [1]): did not affect the PK activity
- reduction in PK activity of HepG2 WT protein lysate (pyruvate kinase (PK) [4]): 28.7%
- effect on PK activity in HepG2 KO cells (in words) [2]: did not affect the PK activity

Compound: O=S(=O)(NCc1ccc(F)cc1)c1cc(O)c(O)cc1-c1ccc(O)c(O)c1 [SET-13, N-(4-fluorobenzyl)-3',4,4',5-tetrahydroxy-[1,1'-biphenyl]-2-sulfonamide]
- inhibition at 10 µM [3]: 70.2%
- reduction in TAG/MTT ratio (HepG2 cells): 21.9%
- reduction in PK activity of HepG2 WT protein lysate (pyruvate kinase (PK) [4]): 15.8%

Compound: O=S(=O)(NCc1ccccc1)c1cc(O)c(O)cc1-c1ccc(O)c(O)c1 [SET-15, N-benzyl-3',4,4',5-tetrahydroxy-[1,1'-biphenyl]-2-sulfonamide]
- inhibition at 10 µM [3]: 59.1%
- reduction in TAG/MTT ratio (HepG2 cells): 26.8%
- reduction in PK activity of HepG2 WT protein lysate (pyruvate kinase (PK) [4]): 25.4%

Compound: COc1ccc(CN2c3cc(OC)c(OC)cc3-c3cc(OC)c(OC)cc3S2(=O)=O)cc1 [SET-18, 2,3,8,9-tetramethoxy-6-(4-methoxybenzyl)-6H-dibenzo[c,e][1,2] thiazine 5,5-dioxide]
- inhibition of PK activity in HepG2 WT cells (pyruvate kinase (PK) [1]): 6.2%
- inhibition at 10 µM ([2]; HepG2, read-out: inhibition of PK activity in HepG2 KO cells): 7.5%

Compound: COc1cc(-c2ccc(C(F)(F)F)cc2)c(S(=O)(=O)NCc2ccccc2)cc1OC [SET-26, N-benzyl-4,5-dimethoxy-4'-(trifluoromethyl)-[1,1'-biphenyl]-2-sulfonamide]
- inhibition at 10 µM [3]: 8%

Compound: COc1cc(Br)c(S(=O)(=O)NCc2cn(CC(=O)c3ccccc3)nn2)cc1OC [SET-27A, 2-bromo-4,5-dimethoxy-N-((1-(2-xox-2-phenylethyl)-1H-1,2,3-triazol-4-yl)methyl) benzenesulfonamide]
- inhibition at 10 µM [3]: 4.3%

Compound: COc1cc(Br)c(S(=O)(=O)NCc2cn(Cc3ccccc3)nn2)cc1OC [SET-35A, N-((1-benzyl-1H-1,2,3-triazol-4-yl)methyl)-2-bromo-4,5-dimethoxybenzenesulfonamide]
- inhibition at 10 µM [3]: 4.4%

Compound: O=S(=O)(NCc1ccc(F)cc1)c1cc(O)c(O)cc1-c1ccc(C(F)(F)F)cc1 [SET-57, N-(4-fluorobenzyl)-4,5-dihydroxy-4'-(trifluoromethyl)-[1,1'-biphenyl]-2-sulfonamide]
- inhibition at 10 µM [3]: 35.2%
- TAG content (in words) (HepG2 cells): reduced TAG content
- reduction in TAG/MTT ratio (HepG2 cells): 15.6%
- reduction in PK activity of HepG2 WT protein lysate (pyruvate kinase (PK) [4]): 10.7%

Compound: COc1cc2c(cc1OC)S(=O)(=O)N(Cc1ccc(F)cc1)c1cc(C(F)(F)F)ccc1-2 [SET-58, 6-(4-fluorobenzyl)-2,3-dimethoxy-8-(trifluoromethyl)-6H-dibenzo[c,e][1,2]thiazine 5,5-dioxide]
- inhibition at 10 µM [3]: 32.4%
- TAG content (in words) (HepG2 cells): reduced TAG content
- reduction in PK activity of HepG2 WT protein lysate (pyruvate kinase (PK) [4]): 33.8%

Compound: O=S1(=O)c2cc(O)c(O)cc2-c2ccc(C(F)(F)F)cc2N1Cc1ccc(F)cc1 [SET-59, 6-(4-fluorobenzyl)-2,2-dihydroxy-8-(trifluoromethyl)-6H-dibenzo[c,e][1,2]thiazine 5,5-dioxide]
- reduction in PK activity of HepG2 KO protein lysate [3]: 11.1%
- TAG content (in words) (HepG2 cells): reduced TAG content
- reduction in PK activity of HepG2 WT protein lysate (pyruvate kinase (PK) [4]): 13.3%

Compound: O=S(=O)(NCc1ccccc1)c1cc(O)c(O)cc1-c1ccc(C(F)(F)F)cc1 [SET-60, N-benzyl-4,5-dihydroxy-4'-(trifluoromethyl)-[1,1'-biphenyl]-2-sulfonamide]
- inhibition at 10 µM [3]: 17.2%
- TAG content (in words) (HepG2 cells): reduced TAG content
- reduction in TAG/MTT ratio (HepG2 cells): 16.3%

Compound: COc1cc2c(cc1OC)S(=O)(=O)N(Cc1ccccc1)c1cc(C(F)(F)F)ccc1-2 [SET-61, 6-benzyl-2,2-dimethoxy-8-(trifluoromethyl)-6H-dibenzo[c,e][1,2]thiazine 5,5-dioxide]
- reduction in PK activity of HepG2 KO protein lysate [3]: 8.8%
- reduction in PK activity of HepG2 WT protein lysate (pyruvate kinase (PK) [4]): 11.7%

Compound: O=S(=O)(NCc1ccc(F)cc1)c1cc(O)c(O)cc1-c1ccc(O)cc1 [SET-66B, N-(4-fluorobenzyl)-4,4',5-trihydroxy-[1,1'-biphenyl]-2-sulfonamide]
- PK activity of HepG2 KO protein lysate (in words) [3]: reduced the PK activity
- increase of the TAG/MTT ratio (HepG2 cells; 5 µM for 1 week): 6.0%
- PK activity of HepG2 WT protein lysate (in words) (pyruvate kinase (PK) [4]): reduced the PK activity

Compound: O=S(=O)(NCc1ccc(F)cc1)c1cc(O)c(O)cc1-c1cccc(O)c1 [SET-68B, N-(4-fluorobenzyl)-3',4,5-trihydroxy-[1,1'-biphenyl]-2-sulfonamide]
- PK activity of HepG2 KO protein lysate (in words) [3]: reduced the PK activity
- PK activity of HepG2 WT protein lysate (in words) (pyruvate kinase (PK) [4]): reduced the PK activity

Compound: O=S1(=O)c2cc(O)c(O)cc2-c2cc(O)ccc2N1Cc1ccc(F)cc1 [SET-68D, 6-(4-fluorobenzyl)-2,3,9-trihydroxy-6H-dibenzo[c,e][1,2]thiazine 5,5-dioxide]
- PK activity of HepG2 WT protein lysate (in words) (pyruvate kinase (PK) [4]): highest inhibitory effect

Compound: O=S(=O)(NCc1ccccc1)c1cc(O)c(O)cc1-c1cccc(O)c1 [SET-69B, N-benzyl-3',4,5-trihydroxy-[1,1'-biphenyl]-2-sulfonamide]
- PK activity of HepG2 KO protein lysate (in words) [3]: reduced the PK activity
- PK activity of HepG2 WT protein lysate (in words) (pyruvate kinase (PK) [4]): reduced the PK activity

Compound: O=S1(=O)c2cc(O)c(O)cc2-c2cc(O)ccc2N1Cc1ccccc1 [SET-69D, 6-benzyl-2,3,9-trihydroxy-6H-dibenzo[c,e][1,2]thiazine 5,5-dioxide]
- PK activity of HepG2 KO protein lysate (in words) [3]: reduced the PK activity
- PK activity of HepG2 WT protein lysate (in words) (pyruvate kinase (PK) [4]): reduced the PK activity

Compound: Cn1c2cc([S+](C)[O-])sc2c2cnn(Cc3cccc(N)c3)c(=O)c21 (stereo not shown) [TEPP46, reference compound]
- effect on PK activity in HepG2 WT cells (in words) (pyruvate kinase (PK) [1]): increased activity
